In US20070135382A1, “Use of peroxisome proliferator-activated receptor gamma (ppary) and/or retinoic acid receptor (rxr) agonists to inhibit platelet functions” (priority 2003, published 2007):

Key:
platelets [1] = test: Platelet aggregation in platelet rich plasma (turbidometric method of Born); assay type: cell-based, human
Description: Platelet aggregation was performed using the turbidometric method of Born (“Quantitative Investigations into the Aggregation of Blood Platelets,” J. Physiol. Lond. 162:67 (1962), which is hereby incorporated by reference in its entirety) with simultaneous measurement of ATP release using a Chrono-log Lumi-aggregometer with AGGRO/LINK for Windows Software version 5.1.6 (Chrono-log Corp., Havertown, Pa.). Blood was collected by clean venipuncture from normal donors who abstained from drugs known to affect platelet aggregation into 0.105M/sodium citrate. Platelet rich plasma (PRP) was prepared by centrifugation at 150×g for 10 min at 20° C., and the platelet count adjusted to 250,000/μl by mixing PRP and platelet poor plasma from the same donor. All experiments were performed within 3 hours of blood collection. Aggregation was performed with ADP, and the slope of aggregation and amplitude were computed using accompanying software. The effects of the PPARγ agonist 15d-PGJ2 were tested by addition of varying concentrations to PRP for 15 min before aggregation. The 15d-PGJ2 was dissolved in DMSO, with a final concentration of DMSO in the samples of approximately 0.1%.

human platelets [2] = test: Thrombin-induced platelet release of PGE2 (enzyme immunoassay); assay type: cell-based; conditions: 20 μM for 15 min, then 0.8 U/ml thrombin
Description: (§1) Platelets were then activated with 0.8 U/ml thrombin or buffer and samples were taken at the 5, 10, 15, 30 and 60 minutes time points to measure human soluble CD40L and PGE2. CD40L assays were performed with a commercially available ELISA specific for CD40L (Bender Biomedical Systems, San Bruno, Calif.). […] The stable end product of platelet TXA2 synthesis, namely TXB2, was measured using a highly specific enzyme immunoassay from Cayman Chemical Company as per the manufacturer's directions.

Human blood = test: PFA-100 clotting (closure) time in human blood; assay type: cell-based; conditions: vs vehicle only, p=0.012
Description: Platelet activation was induced using epinephrine or ADP, and clotting time was assessed using a PFA-100. The PFA-100 allows for an approximation of bleeding times in patients. Longer closure times equal a lower ability to form a clot. […] Human blood was exposed to 15d-PGJ2 or vehicle only followed by testing in the PFA-100 activated with ADP.

PPARγ [3] = biological target: T1, PPARγ (Homo sapiens, UniProt P37231); test: TransAM PPARγ DNA binding activity assay in platelets; assay type: cell-based; conditions: platelets exposed to 20 μM agonist, 2 h at 37° C.
T1 construct: 10 μg of cell extract was incubated in each well of TransAM® PPARγ assay kit; endogenous in cells; host or cells: purified human blood platelets
T1 sequence (P37231 1-505): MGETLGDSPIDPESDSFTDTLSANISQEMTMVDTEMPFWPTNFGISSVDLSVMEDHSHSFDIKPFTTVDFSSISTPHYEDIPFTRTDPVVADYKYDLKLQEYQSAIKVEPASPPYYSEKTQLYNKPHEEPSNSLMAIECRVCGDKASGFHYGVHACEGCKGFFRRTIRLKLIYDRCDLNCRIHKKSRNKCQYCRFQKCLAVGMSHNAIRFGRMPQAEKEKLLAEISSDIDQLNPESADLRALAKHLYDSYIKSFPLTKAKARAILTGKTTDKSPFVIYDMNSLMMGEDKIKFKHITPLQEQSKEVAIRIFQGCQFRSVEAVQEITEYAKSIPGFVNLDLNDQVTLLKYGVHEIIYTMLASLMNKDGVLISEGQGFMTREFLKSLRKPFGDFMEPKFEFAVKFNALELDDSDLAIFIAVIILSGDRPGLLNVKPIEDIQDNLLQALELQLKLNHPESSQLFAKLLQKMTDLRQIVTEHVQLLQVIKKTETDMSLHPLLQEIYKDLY
T1 sequence (P19793 1-462 partner): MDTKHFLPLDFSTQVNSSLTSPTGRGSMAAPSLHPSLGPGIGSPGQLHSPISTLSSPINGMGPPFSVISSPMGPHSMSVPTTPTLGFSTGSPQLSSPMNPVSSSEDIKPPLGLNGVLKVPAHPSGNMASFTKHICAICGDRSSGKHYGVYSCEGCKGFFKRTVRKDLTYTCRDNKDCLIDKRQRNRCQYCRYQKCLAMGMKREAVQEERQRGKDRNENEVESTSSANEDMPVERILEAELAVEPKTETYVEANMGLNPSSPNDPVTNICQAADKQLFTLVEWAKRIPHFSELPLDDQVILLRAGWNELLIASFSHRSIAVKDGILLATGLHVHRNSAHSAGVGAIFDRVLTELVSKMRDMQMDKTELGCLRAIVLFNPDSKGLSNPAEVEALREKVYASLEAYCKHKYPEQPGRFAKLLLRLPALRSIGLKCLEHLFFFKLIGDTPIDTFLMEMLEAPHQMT
Description: Platelets were lysed with hypotonic buffer (10 mM HEPES-KOH (pH 7.9), 1.5 mM MgCl2, 10 mM KCl, 0.5 mM DTT, 0.5% Nonidet P-40 and 0.2 mM PMSF) and 10 μg of cell extract was incubated in each well of TransAM® PPARγ assay kit (Active Motif, Carlsbad, Calif.) and PPARγ DNA binding was determined as per manufacturers' protocol.
The ability of platelet derived PPARγ to bind its DNA consensus sequence was also measured using the TransAM™ PPARγ assay kit (Active Motif Inc.). In this method the consensus DNA sequence for PPARγ binding (or as a control mutated oligonucleotides) is plate-bound. A cell lysate is then added to the well, washed and next incubated with an enzyme-conjugated anti-PPARγ antibody that recognizes only DNA-bound PPARγ. Following substrate addition, a colored product is formed.

platelets [4] = test: ATP release from platelets during aggregation (Lumi-aggregometry); conditions: 20 μM
Description: ATP release from platelets during aggregation was characterized by Lumi-Aggregometry after stimulation with thrombin (1 U/ml) or ADP (5 μM). […] The rate of release with normal platelets was defined as 100%. […] The results represent mean±SEM of three experiments.
Platelet aggregation was performed using the turbidometric method of Born (“Quantitative Investigations into the Aggregation of Blood Platelets,” J. Physiol. Lond. 162:67 (1962), which is hereby incorporated by reference in its entirety) with simultaneous measurement of ATP release using a Chrono-log Lumi-aggregometer with AGGRO/LINK for Windows Software version 5.1.6 (Chrono-log Corp., Havertown, Pa.). Blood was collected by clean venipuncture from normal donors who abstained from drugs known to affect platelet aggregation into 0.105M/sodium citrate. Platelet rich plasma (PRP) was prepared by centrifugation at 150×g for 10 min at 20° C., and the platelet count adjusted to 250,000/μl by mixing PRP and platelet poor plasma from the same donor. All experiments were performed within 3 hours of blood collection. Aggregation was performed with ADP, and the slope of aggregation and amplitude were computed using accompanying software. The effects of the PPARγ agonist 15d-PGJ2 were tested by addition of varying concentrations to PRP for 15 min before aggregation. The 15d-PGJ2 was dissolved in DMSO, with a final concentration of DMSO in the samples of approximately 0.1%. […] Additional clotting studies were performed using a PFA-100 according to the manufacturer's instructions. Basically, clotting time (induced by clotting activator such as epinephrine or ADP) was measured in the presence or absence of a PPARγ agonist, and differences noted.
To determine if a PPARγ agonist would inhibit platelet aggregation, the natural PPARγ agonist 15d-PGJ2 was added to PRP and aggregation and ATP release stimulated with ADP.

human platelets [5] = test: Thrombin-induced platelet release of TXB2 (enzyme immunoassay); assay type: cell-based; conditions: 20 μM for 15 min, then 0.8 U/ml thrombin, 5-60 min
Description: as §1
(§2) Platelets were then incubated with buffer or with thrombin, a powerful platelet activator.

PPARγ [6] = biological target: T1, PPARγ; test: Electrophoretic mobility shift assay for PPARγ DNA binding in Meg-01 cells; assay type: cell-based; conditions: 15d-PGJ2 5 μM or ciglitazone 10 μM, 4 hours, nuclear extract, vs DMSO
Description: Cells were treated with 5 μM 15d-PGJ2, 10 μM ciglitazone, or DMSO (vehicle control) for 4 hours. The cells were washed in cold PBS and then incubated on ice in hypotonic buffer (10 mM HEPES-KOH (pH 7.9), 1.5 mM MgCl2, 10 mM KCl, 0.5 mM DTT, 0.5% Nonidet P-40 and 0.2 mM PMSF) for 10 minutes. The lysates were vortexed for 10 seconds and centrifuged for 15 seconds. The pellet was isolated carefully and re-suspended in 80 μl of hypertonic buffer (20 mM HEPES-KOH (pH 7.9), 1.5 mM MgCl2, 25% glycerol, 420 mM NaCl, 0.2 mM EDTA, 0.5 mM DTT, and 0.2 mM PMSF). After incubation on ice for 20 minutes, lysates were centrifuged for 20 seconds and the supernatant containing the nuclear protein was transferred to new tubes. Protein quantification was performed using a BCA assay kit. Platelet protein isolation was done as described for the PPARγ activity assay. For the gel shift assay of Meg-01 and platelets, the consensus sequence for PPARγ (5′-[…]-3′) (SEQ ID NO: 1) was labeled with [γ-32P]ATP using T4 Polynucleotide Kinase (Life technologies). Micro Bio-Spin P-30 Tris Chromatography Columns were used to remove the unbound nucleotides (Bio-Rad). […]

human platelets [7] = test: Thrombin-induced platelet release of CD40L (ELISA); assay type: cell-based; conditions: 20 μM for 15 min, then 0.8 U/ml thrombin, 5-60 min
Description: as §1, §2

CCCCC/C=C/C=C1/C(=O)C=C[C@@H]1C/C=C\CCCC(=O)O [15d-PGJ2, 15D-prostaglandin J2]
aggregation slope (rate) (platelets [1]; 10 μM, ADP as platelet agonist): decrease the aggregation slope
initial slope of platelet aggregation, % of the normal (untreated) (platelets [1]; 20 μM, ADP-stimulated PRP, first 16 seconds, mean±SEM, n=7): 83±5%
amplitude of aggregation, % of normal platelets (platelets [1]; 20 μM, ADP-stimulated PRP, mean±SEM, n=7): 64±11%
platelet aggregation, concentration dependence (platelets [1]; varying concentrations, 15 min before ADP): concentration dependent inhibition
thrombin-induced release of PGE2 (human platelets [2]): substantially prevented
PFA-100 closure time, ADP activated (Human blood): takes longer to form a closure
binding to the PPARγ DNA response element (TransAM) (PPARγ [3]): significantly enhances binding
ATP release amplitude, % of normal platelets (platelets [4]; ADP-stimulated, n=7): 22±10%
ATP release slope, % of normal (platelets [4]; ADP-stimulated, n=7): 15±5%
rate of ATP release with thrombin (platelets [4]; thrombin 1 U/ml): significant (P=0.002) reduction
release of TXB2 (human platelets [5]): largely prevented
level of active (DNA binding) PPARγ in Meg-01 cells by EMSA (PPARγ [6]): increased
release of CD40L (human platelets [7]): largely prevented
